Test results: patent US12460245B2, “Luciferase sequences utilizing infrared-emitting substrates to produce enhanced luminescence” (Promega Corporation, priority 2014, dated 2025)
“And” between values parts separate entries of the source, which are not always exact repeats. Identical values can stand only once.

Tests used:
[1] = tested on: CBR; test: Km titration in live HEK293T cells; format: cell-based, click beetle; details: 60 min at 37° C.
Protocol: HEK293T cells were plated at 15,000 cells/well into wells of 96-well white assay plates and grown overnight. A transfection mixture was made containing 13 μg of CBR DNA and 40 μL FuGENE® HD in a total volume of 620 μL OptiMEM. The mixture was incubated at room temperature for 10 min. The cells were then transfected, in triplicate, with 5 μL of transfection complex and grown overnight. […] The growth media from the transfected cells was removed and replaced with one of the 3× serial diluted substrate containing media. The cells were incubated 60 min at 37° C., and the cells were imaged on a ImageQuant CCD imager (FIG. 22).

[2] = molecular target: T1, QuantiLum® luciferase (firefly) (Photinus pyralis, UniProt P08659); test: Spectral scan of near-IR substrates with purified enzyme; format: biochemical; details: substrate 1 mM in Bright-Glo Assay buffer + 1 mM ATP
T1 construct: purchased Promega E1701
Protocol: Materials: The following were used in the Examples: Ultra-Glo™ Luciferase (Promega Cat. No. E140); QuantiLum® Recombinant Luciferase (Promega Cat. No. E1701); Click Beetle Red Luciferase (CBR; 0.5 mg/mL purified; Promega); Bright-Glo™ assay buffer (Promega Cat. No. E264A); PBI-4739 (Promega—See FIG. 1); and PBI-4813 (Promega—See FIG. 1).
Experimental Details. The substrates, PBI-4813 and PBI-4739, were diluted to 1 mM (final concentration) in Bright-Glo™ Assay buffer+1 mM ATP. 50 μL of substrate solution was added to 50 μL of Click Beetle Red, UltraGlo® or QuantiLum® purified enzyme (0.5 mg/mL diluted in DMEM+0.1% Prionex) in triplicate, and then the samples assayed using a Tecan M-1000 plate reader in spectral scan mode.
FIG. 2 provides the spectral data for Click Beetle Red Luciferase with PBI-4813 (A) and PBI-4739 (B), where the spectral maximum was 655 nm for PBI-4813 and 760 nm for PBI-4739. FIG. 3 provides the spectral data for UltraGlo® luciferase with PBI-4813 (A) and PBI-4739 (B), where the spectral maximum was 670 nm for PBI-4813 and 660 nm for PBI-4739. FIG. 4 provides the spectral data for QuantiLum® luciferase (firefly) with PBI-4813 (A) and PBI-4739 (B), where the spectral maximum was 680 nm for PBI-4813 and equal to or greater than 700 nm for PBI-4739.

[3] = tested on: cells; test: Cell toxicity studies; format: cell-based; details: compared to D-luciferin
[4] = Solubility of the substrates; format: physicochemical; details: PBI-4739 compared with PBI-4813
[5] = tested on: ATG1240; test: Km titration in HEK293 cell lysates; format: biochemical, click beetle
Protocol: (§1) Some of the variants identified in Examples 2 and 3 were screened for their performance in mammalian cells. DNA was prepared by Plasmid.com. HEK293 and HeLa cells were plated into wells of a 24-well plate at 0.05×10^6 cells/mL and grown overnight at 37° C. with CO2. 2.2 μg variant DNA was mixed with 80 μL OptiMEM and 6.6 μL FuGENE® HD transfection reagent (Promega Corporation) and incubated at room temperature for 5 min. 25 μL of the DNA mixture was added to each well. After overnight incubation, the media was removed from the cells and 1 mL DPBS (Life Technologies) was added. […] Luminescence of the variants was normalized to the average of two CBR samples (FIG. 6 and FIG. 7). C. Km Titration. Cell lysates of ATG 1230 and ATG 1240 expressed in HEK293 cells were prepared as described in Example 4. The cell lysates were then diluted 1:10 in 0.3×PLB+0.1% Prionex. Dilutions (2×) of each substrate (PBI-4813 or PBI-4739) were prepared in Bright-Glo™ Assay buffer containing 1 mM ATP. 50 μL of diluted cell lysate was assayed with 50 μL of each substrate assay solution. Luminescence was detected on the GloMax® Discover (FIG. 12). […] Because the enzyme concentration is not known for the lysates of for live cell titrations, Vmax as expressed as a velocity is not possible. Instead, the relative Vmax calculates the maximum brightness for each lysate with different substrates.

[6] = tested on: CBR; test: Km titration in HEK293 cell lysates; format: biochemical, click beetle
Protocol: as §1

[7] = tested on: CBR; test: Km titration in live HeLa cells; format: cell-based, click beetle; details: 60 min at 37° C.
Protocol: HeLa cells were plated at 20,000 cells/well into wells of 96-well white assay plates and grown overnight. A transfection mixture was made containing 13 μg of CBR DNA and 40 μL FuGENE® HD in a total volume of 620 μL OptiMEM. The mixture was incubated at room temperature for 10 min. The cells were then transfected, in triplicate, with 5 μL of transfection complex and grown overnight. […] The growth media from the transfected cells was removed and replaced with one of the 3× serial diluted substrate containing media. The cells were incubated for 60 min at 37° C. Luminescence was detected on a GloMax®-Multi+luminometer (FIG. 21A and FIG. 21B).

[8] = tested on: ATG 1240; test: Mimicry of tissue attenuation using long pass filters, transfected HEK293T cells; format: cell-based, click beetle; details: HEK293T cells expressing ATG 1240; long pass filters
Protocol: A transfection complex was prepared by diluting ATG 1240 DNA or Luc2 DNA (pF4Ag-Luc2) to 100 ng/μL, and then 2× serial dilutions prepared in 50 ng/μL pGEM carrier DNA. 40 μL of the diluted DNA was the mixed with 160 μL phenol red free OptiMEM and 16 μL of FuGENE® HD and incubated for 20 min. 5 μL of each transfection complex was added to wells of a 96-well black assay plates and then 100 μL of diluted HEK293T cells (200,000/mL in DMEM+10% FBS) was added. The cells were grown overnight at 37° C. with CO2.
To assay the cells, 4 mM D-luciferin, 2 mM PBI-4813 and 2 mM PBI-4739 substrate solutions were prepared in DMEM+10% FBS. 100 μL of the D-luciferin solution was added to cells expressing Luc2 and ATG 1240, and 100 μL of PBI-4813 or PBI-4739 solution was added to ATG 1240 expressing cells. Samples were incubated for 10 min at 37° C., and luminescence detected on GloMax® Discover (heated to 37° C.) with no filter, 610 nm Long Pass (LP) filter, 665 nm LP filter, 695 nm LP filter, 720 nm LP filter or 760 nm LP filter.

[9] = Km in live cell (remark in Example 13); format: cell-based; details: enzyme not stated
[10] = Substrate inhibition of luciferase activity at high substrate concentration; format: biochemical
[11] = tested on: Click Beetle Red (CBR) mutant(s); test: Light emission from Click Beetle Red mutant(s) with the red-shifted substrates; format: biochemical; details: PBI-4813 compared with PBI-4739
[12] = Luminescence of ATG 1230 and ATG 1240 cell lysates, GloMax Discover with red-sensitive PMT; format: biochemical
Protocol: 2. Cell lysates were prepared from cells containing the variants listed in Table 3 by diluting 100 μL of induced culture with 100 μL of lysis buffer (0.3×PLB, 0.006U RQ DNAse1) using a Tecan liquid handling robot. 50 μL of each cell lysate was assayed with either PBI-4813 or PBI-4739 (20 μM in Bright-Glo™ assay buffer containing 1 mM ATP), and luminescence detected on an ImageQuant CCD imager. Luminescence of the variants was normalized to CBR luciferase (FIG. 8).
Variant clones identified as ATG 1230 (CBR+389F+444R+251S) and ATG 1240 (CBR+334S+351R) were further evaluated for their luminescence, spectral property, Km and live cell kinetics with either PBI-4813 or PBI-4739. These variants were cloned and expressed as described in Example 2 except the template was pF4Ag-CBR, i.e., no HALOTAG®.
A. Luminescence with PBI-4813 and PBI-4739. Cell lysates of these variant clones were prepared and assayed for luminescence as described in Example 6. Luminescence was detected on a GloMax® Discover equipped with a red-sensitive photomultiplier tube (PMT) and compared to CBR luciferase (Table 5 and FIG. 10).

[13] = Km titration of ATG 1240 compared with CBR in live HEK293T cells; format: cell-based; details: 60 min at 37° C.
Protocol: HEK293T cells were plated at 15,000 cells/well into wells of 96-well white assay plates and grown overnight. A transfection mixture was made containing 6.6 μg of CBR or ATG-1240 DNA and 20 μL FuGENE® HD in a total volume of 310 μL OptiMEM. The mixture was incubated at room temperature for 10 min. The cells were then transfected, in triplicate, with 5 μL of transfection complex and grown overnight.
The transfected cells were then assayed. 2× serial dilutions of PBI-4813 and PBI-4739 starting at 2 mM in CO2 independent media+0.5% FBS were prepared. The growth media from the transfected cells was removed and replaced with one of the serial diluted substrate containing media. The cells were incubated 60 min at 37° C., and luminescence detected on a modified GloMax® Discover luminometer containing a red shifted PMT (see FIG. 23A and FIG. 23B). The Km of ATG 1240 was about 5 times higher than the Km of CBR with PBI-4813. The Km of ATG 1240 was about 3 times higher than the Km of CBR with PBI-4739.

[14] = Secondary library screen using ATG 1240 as template, lysate luminescence; format: biochemical; details: ATG 1240 template (WT = ATG-1240)
Protocol: A random clone library was prepared as described in Example 2 using ATG 1240 as a template. The variants were then cloned into pF4Ag (no HT7). The library was screened as follows (50 plates total):
i. Primary Screen. Cells were grown as described in Example 2. Cell lysates were prepared by diluting 100 μL of induced culture with 100 μL of lysis buffer (0.3×PLB+0.006U RQDNAse1) using a Tecan liquid handling robot. 50 μL of each cell lysate was then assayed with either PBI-4813 or PBI-4739. (20 μM substrate in Bright-Glo™ assay buffer containing 1 mM ATP). Luminescence was detected on a GloMax® Discover.
ii. Secondary Screen. Cells from each hit in the primary screen were streaked onto new plates and grown overnight. Colonies were picked in quadruplicate and cultures were grown as described in Example 2. 50 μL of each cell lysate was assayed with 50 μL of BrightGlo™ assay buffer containing 1 mM ATP and 30 μM PBI-4813 or 50 μM PBI-4739. Luminescence was detected on a GloMax® Discover Multimode Detection System (Table 6). The variants in this library were identified as having on average between 2-3 mutations per gene.

T1 sequence (P08659 whole entry): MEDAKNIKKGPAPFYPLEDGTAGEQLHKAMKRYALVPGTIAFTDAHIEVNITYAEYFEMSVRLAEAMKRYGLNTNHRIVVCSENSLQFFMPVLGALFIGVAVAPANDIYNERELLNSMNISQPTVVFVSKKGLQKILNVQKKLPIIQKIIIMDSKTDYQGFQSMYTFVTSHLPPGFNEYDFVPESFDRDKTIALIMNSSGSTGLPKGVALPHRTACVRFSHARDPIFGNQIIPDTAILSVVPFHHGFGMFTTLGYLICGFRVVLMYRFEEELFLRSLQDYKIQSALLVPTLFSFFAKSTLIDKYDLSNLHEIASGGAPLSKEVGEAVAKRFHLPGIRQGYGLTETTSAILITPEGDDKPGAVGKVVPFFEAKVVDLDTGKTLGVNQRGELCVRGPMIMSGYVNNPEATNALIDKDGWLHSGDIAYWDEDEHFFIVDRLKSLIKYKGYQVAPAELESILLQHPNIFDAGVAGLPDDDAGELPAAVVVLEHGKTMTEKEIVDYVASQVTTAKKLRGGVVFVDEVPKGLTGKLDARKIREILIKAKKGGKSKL

| Molecule | Km for CBR, lower relative to D-luciferin [1] | spectral maximum with QuantiLum® luciferase (firefly) [2] [nm] | cell toxicity [3] | solubility [4] | Km with ATG1240, lower than CBR with D-luciferin [5] | Km with CBR in the lysates, lower than CBR with D-luciferin [6] | Km for CBR in live cells, lower than the Km for D-luciferin [7] | luminescence of ATG 1240 at the greatest light attenuation [8] | Km less than for D-luciferin in live cell [9] | substrate inhibition by the substrate [10] | brightness of light emission [11] | Luminescence, PBI-4739 ([12]; cell lysate, 20 μM PBI-4739) | Luminescence, PBI 4813 ([12]; cell lysate, 20 μM PBI-4813, GloMax Discover red-sensitive PMT) | PBI-4813/PBI-4739 ([12]; ratio of luminescence with the two substrates) | Km higher than the Km of CBR with PBI-4739 [13] | Km higher than the Km of CBR with PBI-4813 [13] | Luminescence, secondary screen, PBI-4813 ([14]; 30 μM PBI-4813, 1 mM ATP) | Luminescence, secondary screen, PBI-4739 ([14]; 50 μM PBI-4739, 1 mM ATP) | inhibition of luciferase activity by PBI-4813 ([10]; PBI-4813 at concentrations greater than ten times the Km) |
| --- | --- | --- | --- | --- | --- | --- | --- | --- | --- | --- | --- | --- | --- | --- | --- | --- | --- | --- | --- |
| O=C(O)C1CSC(c2nc3ccc4cc(O)ccc4c3s2)=N1 (stereo not shown) [PBI-4739] | about 5 times | ≥ 700 | comparable non-toxicity to D-luciferin | less soluble | – | – | – | – | – | – | – | – | – | – | – | – | – | – | – |
| Nc1ccc2c(ccc3nc(C4=NC(C(=O)O)CS4)sc32)c1 (stereo not shown) [PBI-4813] | about 23 times | 680 | comparable non-toxicity to D-luciferin | – | about 5 × | about 30 × | about 20 times | comparable | more than 10 times | possible substrate inhibition | brighter | – | – | – | – | – | – | – | – |
| ATG 1240: CBR variant R334S and G351R (SEQ ID NO: 2) (protein) MVKREKNVIYGPEPLHPLEDLTAGEMLFRALRKHSHLPQALVDVVGDESLSYKEFFEATVLLAQSLHNCGYKMNDVVSICAENNTRFFIPVIAAWYIGMIVAPVNESYIPDELCKVMGISKPQIVFTTKNILNKVLEVQSRTNFIKRIIILDTVENIHGCESLPNFISRYSDGNIANFKPLHFDPVEQVAAILCSSGTTGLPKGVMQTHQNICVRLIHALDPRYGTQLIPGVTVLVYLPFFHAFGFHITLGYFMVGLRVIMFRRFDQEAFLKAIQDYEVRSVINVPSVILFLSKSPLVDKYDLSSLRELCCGAAPLAKEVAEVAAKRLNLPGISCGFGLTESTSAIIQTLRDEFKSGSLGRVTPLMAAKIADRETGKALGPNQVGELCIKGPMVSKGYVNNVEATKEAIDDDGWLHSGDFGYYDEDEHFYVVDRYKELIKYKGSQVAPAELEEILLKNPCIRDVAVVGIPDLEAGELPSAFVVKQPGTEITAKEVYDYLAERVSHTKYLRGGVRFVDSIPRNVTGKITRKELLKQLLVKAGGV | – | – | – | – | – | – | – | – | – | – | – | 37,169 | 71,299 | 1.9 | about 3 times | about 5 times | 1.2 and 1.01 and 1.0 and 0.9 and 1.02 and 0.97 | 1.1 and 1.05 and 1.0 and 0.99 and 0.97 and 0.9 | does not show this inhibition |
